# Test results reported in patent US20140221499A1, “NOVEL RODENT CONTROL AGENTS AND USES THEREOF” (priority 2011, published 2014).
# Columns and labels:
# [1] = tested on: olfactory TAARs; assay: TAAR reporter gene assay, panel of mouse and rat TAARs in HEK293 cells; format: cell-based; conditions: mouse and rat TAARs
# From the text: Here, we set out to identify agonists for additional mouse and rat TAARs. We examined odor response profiles using a previously established reporter gene assay based on cAMP-dependent odor transduction in olfactory sensory neurons (40, 42). Briefly, TAAR plasmids were transfected into HEK293 cells along with a cAMP-dependent reporter gene encoding secreted alkaline phosphatase (CRE-SEAP). TAARs were expressed both in unmodified form and as fusion proteins with an N-terminal sequence of bovine rhodopsin (‘Rho tag’) that promotes cell surface expression of some chemosensory receptors (35). Transfected cells were incubated with test chemicals, and phosphatase activity was quantified with a fluorescent substrate as a reporter for TAAR activation. In initial experiments, we tested 38 different odorant mixtures containing 244 structurally diverse test chemicals (2-5 μM) for the ability to activate each mTAAR. Subsequently, we tested 73 amines that included known mTAAR agonists and related chemicals for the ability to activate each rTAAR.
# TAAR functional assays. Full Taar coding regions were cloned into pcDNA3.1-(Invitrogen) with or without a 5′ DNA extension of 69 bp encoding the first 20 amino acids of bovine rhodopsin followed by a cloning linker ([…]). Point mutations were introduced in mTAAR7e and mTAAR7f by overlap extension PCR. Functional assays were performed as described (40, 42). Fluorescence was measured on an EnVision plate reader (Perkin Elmer) and SEAP activity graphed as relative fluorescence of a phosphatase substrate.
# [2] = biological target: T1, mouse TAAR4 (Mus musculus, UniProt Q5QD15); assay: TAAR4 CRE-SEAP reporter gene assay in transfected HEK293 cells; format: cell-based; conditions: concentration series of pure chemicals
# T1 construct: Full Taar coding regions were cloned into pcDNA3.1-(Invitrogen); expressed in transfected cells; host or cells: HEK293
# T1 sequence (Q5QD15 1-347): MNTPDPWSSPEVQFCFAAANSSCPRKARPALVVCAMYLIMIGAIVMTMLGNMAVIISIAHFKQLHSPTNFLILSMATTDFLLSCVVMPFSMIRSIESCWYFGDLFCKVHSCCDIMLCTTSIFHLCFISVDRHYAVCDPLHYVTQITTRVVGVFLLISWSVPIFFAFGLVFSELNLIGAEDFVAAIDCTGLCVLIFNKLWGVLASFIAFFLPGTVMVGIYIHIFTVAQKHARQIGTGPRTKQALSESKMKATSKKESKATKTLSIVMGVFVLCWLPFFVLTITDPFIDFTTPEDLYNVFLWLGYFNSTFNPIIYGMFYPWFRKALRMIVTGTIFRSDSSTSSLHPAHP
# Description: HEK293 cells were co-transfected with TAAR expression plasmids and a cAMPdependent reporter gene encoding secreted alkaline phosphatase (CRE-SEAP). Transfected cells were incubated with urine extracts from different mammalian species, and phosphatase activity was quantified with a fluorescent substrate as a reporter for TAAR activation.
# Test urines were diluted in serum-free media containing penicillin G (100 Units/ml, Invitrogen) and streptomycin sulfate (100 mg/ml, Invitrogen). SEAP activity is measured as fluorescence resulting from dephosphorylation of a substrate, 4-methylumbelliferyl phosphate. Fluorescence values were obtained using an EnVision plate reader (Perkin Elmer) and are reported directly without normalization.
# [3] = tested on: corticosterone levels in rat plasma; assay: Plasma corticosterone assay after odor exposure; format: in vivo; conditions: 30 min exposure, 10% amine or 2% TMT, 1 ml, ±SEM
# Description: Avoidance to 2-phenylethylamine in rats was associated with acute changes in circulating levels of the stress hormone corticosterone.
# Plasma corticosterone assay. […] Corticosterone levels were measured in duplicate using a competitive radioactive binding assay as described previously (Pryce C R, Bettschen D, Bahr N I, & Feldon J (2001) Comparison of the effects of infant handling, isolation, and nonhandling on acoustic startle, prepulse inhibition, locomotion, and HPA activity in the adult rat. Behav Neurosci 115(1):71-83).
# [4] = biological target: T2, mouse TAAR3 (Mus musculus, UniProt Q5QD16); assay: TAAR3 CRE-SEAP reporter gene assay in transfected HEK293 cells; format: cell-based
# T2 construct: Full Taar coding regions were cloned into pcDNA3.1-(Invitrogen); expressed in transfected cells; host or cells: HEK293
# T2 sequence (Q5QD16 1-343): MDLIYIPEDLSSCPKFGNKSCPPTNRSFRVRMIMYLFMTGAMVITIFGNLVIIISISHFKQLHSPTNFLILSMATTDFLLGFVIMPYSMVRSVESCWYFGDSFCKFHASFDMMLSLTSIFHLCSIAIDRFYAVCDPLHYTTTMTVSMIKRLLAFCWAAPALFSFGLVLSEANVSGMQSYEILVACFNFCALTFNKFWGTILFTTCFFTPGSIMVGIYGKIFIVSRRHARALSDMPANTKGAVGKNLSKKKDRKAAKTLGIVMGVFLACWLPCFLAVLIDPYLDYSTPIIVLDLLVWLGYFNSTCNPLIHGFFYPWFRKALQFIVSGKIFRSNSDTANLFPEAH
# Description: Reporter gene assays were performed on HEK293 cells transfected with mouse TAAR3 and CRE-SEAP.
# TAAR functional assays. Reporter gene assays were performed as described (Liberles S D & Buck LB (2006) A second class of chemosensory receptors in the olfactory epithelium. Nature 442(7103):645-650) with the following minor modifications. Test urines were diluted in serum-free media containing penicillin G (100 Units/ml, Invitrogen) and streptomycin sulfate ([…], Invitrogen). SEAP activity is measured as fluorescence resulting from dephosphorylation of a substrate, 4-methylumbelliferyl phosphate. Fluorescence values were obtained using an EnVision plate reader (Perkin Elmer) and are reported directly without normalization. All TAARs, except mouse TAAR3, were expressed as fusion proteins with an N-terminal sequence of bovine rhodopsin (Krautwurst D, Yau K W, & Reed R R (1998) Identification of ligands for olfactory receptors by functional expression of a receptor library. Cell 95(7):917-926).
# [5] = tested on: mouse olfactory sensory neurons; assay: Confocal calcium imaging of olfactory sensory neurons in tissue slices; format: cell-based; conditions: dorsal olfactory epithelium
# Description: The mammalian olfactory system encodes odor identity using combinations of olfactory receptors (11). […] Here, we used a confocal imaging strategy to record cytosolic calcium transients of single sensory neurons in real time. Viability of analyzed neurons was determined after odor exposures by KCl-induced depolarization.
# Confocal calcium imaging of olfactory sensory neurons in tissue slices. Recordings were performed as described (Spehr M, et al. (2006) Essential role of the main olfactory system in social recognition of major histocompatibility complex peptide ligands. J Neurosci 26(7):1961-1970) with the following modifications. For calcium sensitive dye loading, slices of olfactory epithelium were incubated (30 min, 4° C.) in HEPES solution (in mM: 145 NaCl, 5 KCl, 1 CaCl2, 1 MgCl2, 10 HEPES; pH=7.3) containing Fluo-4/AM (2 μM; Molecular Probes). Slices were transferred to a recording chamber (Slice Mini Chamber, Luigs & Neumann, Ratingen, Germany) and visualized using a Leica DM6000CFS confocal fixed stage upright microscope (Leica Microsystems, Mannheim, Germany) equipped with an apochromatic water immersion objective (HC X APO L20x/1.0 W) and infrared-optimized differential interference contrast (DIC) optics. Slices were anchored via stainless steel wires with 0.1 mm lycra threads and continuously superfused with HEPES-buffered solution. Changes in cytosolic calcium were monitored over time at 1.0 Hz frame rate. Stimulus application as well as solution exchange during inter-stimulus intervals was achieved by a custom-made, pressure-driven focal application device consisting of a software-controlled valve bank connected to a 7-in-1 ‘perfusion pencil’. Rhodamine application controlled for uniform flow and even stimulus application throughout the epithelial sensory surface. Offline analysis of time-lapse experiments was performed using LAS-AF software (Leica). All cells in a given field of view were marked as individual regions of interest (ROIs), and the relative fluorescence intensity for each ROI was calculated and processed as a function of time.
# [6] = tested on: Sprague-Dawley rats; assay: Open field odor avoidance; format: in vivo, rat; conditions: ten minute exposure, 12 animals ±SEM; 1 ml urine or 5 μl amine
# Description: We next examined behavioral responses of rodents to 2-phenylethylamine. […] Behaviors of rats in a square-shaped arena were recorded and analyzed following placement of test stimuli in a pseudorandom corner (FIG. 5A). […] Thus, 2-phenylethylamine, in the absence of other predator odor cues, was sufficient to evoke rat avoidance behavior.
# Open field behavioral analysis. Rat behavioral responses to odors in the open field were measured as described previously (Fendt M (2006) Exposure to urine of canids and felids, but not of herbivores, induces defensive behavior in laboratory rats. Journal of chemical ecology 32(12):2617-2627) with the following modifications. Adult Sprague-Dawley rats (240-340 g; Janvier, Le Genest St. Isle, France) were placed in the center of a 45 cm×45 cm Plexiglass arena (TSE Systems, Bad Homburg, Germany) equipped with infrared sensors (distance 14 mm, illumination 80-120 lux). The arena contained glass dishes (36 mm) in each corner, with one dish containing test stimuli. Prior to testing, animals were habituated to the arena by introducing them for three consecutive days. […] Location of the rats was automatically recorded using the infrared detectors and analyzed (TSE Systems software). Statistical significance was measured using Wilcoxon Signed Test (**p<0.01; comparison with chance level (25%)). […]
compound,measurement,setting,value
"CN1CCCCC1 [1-methylpiperidine, N-methylpiperidine]",TAAR activation,[1],activated TAARs
OCCc1ccccc1 [2-phenylethanol],TAAR4 activation,[2],did not activate TAAR4 at any concentration tested
NCCCc1ccccc1 [3-phenylpropylamine],TAAR4 activation,[2],activates TAAR4 at high concentrations
"CCCCN(C)C [N,N-dimethylbutylamine]",TAAR activation,[1],activated TAARs
"CCCCCCCCN(C)C [N,N-dimethyloctylamine]",TAAR activation,[1],activated TAARs
"CC1=NC(C)SC1C (stereo not shown) [TMT, 2,5-dihydro-2,4,5-trimethylthiazole]",plasma levels of corticosterone,[3],238 ± 21 ng/mL
"NCc1ccccc1 [benzylamine, reference compound]",EC50,[4],~200 µM
same,carnivore odor-selective neurons activated by 2-phenylethylamine that also responded to benzylamine,[5],0/1268
same,percentage of time rats are located in the odor quadrant,[6],29±7.2%
same,TAAR4 activation,[2],did not similarly activate TAAR4
same,plasma levels of corticosterone,[3],130 ± 32 ng/mL
NC1CCCCC1 [cyclohexylamine],TAAR activation,[1],activated TAARs
CC(C)CCN [isoamylamine],TAAR3 detection,[4],preferred ligand
same,TAAR activation,[1],activated TAARs
"COc1ccc2[nH]cc(CCN(C)C)c2c1 [ligand 7, 5-methoxy-N,N-dimethyltryptamine]",TAAR activation,[1],activated different TAAR7 paralogs
CCCCNC [methylbutylamine],TAAR activation,[1],activated TAARs
